Results reported in PMC7848139, “Novel Hybrid CHC from β-carboline and N-Hydroxyacrylamide Overcomes Drug-Resistant Hepatocellular Carcinoma by Promoting Apoptosis, DNA Damage, and Cell Cycle Arrest” (Frontiers in Pharmacology, 2021).

Legend:
HCT116 = assay: MTT antiproliferative assay, HCT116; type: cell-based; details: Homo sapiens, HCT-116, 72 h, mean ± SD of three experiments, read-out: In vitro antiproliferative activity (IC50) HCT116
Description: Briefly, appropriate cells (1 × 10^4 cells/mL) were placed into 96-well plates in 100 μL of DMEM medium overnight. Then adding 100 μL of evaluated compounds into individual well for 72 h while 0.1% DMSO aqueous solution was treated as the negative control. After incubation with 30 μl MTT (5 mg/mL) for 4 h in all well, and ELISA plate reader measured absorbance of each well at 570 nm. Then calculating cytotoxicity effect of evaluated compounds through the formula: Cell inhibitory percentage (%) = (1−OD of treatment group/OD of control) × 100%.

recombinant human HDAC8 = target: T1, recombinant human HDAC8 (Homo sapiens, UniProt Q9BY41); assay: HDAC fluorimetric assay, HDAC8; type: biochemical; details: mean ± SD of three experiments
T1 construct: purchased Enzo Life Sciences Inc
T1 sequence (Q9BY41 1-377): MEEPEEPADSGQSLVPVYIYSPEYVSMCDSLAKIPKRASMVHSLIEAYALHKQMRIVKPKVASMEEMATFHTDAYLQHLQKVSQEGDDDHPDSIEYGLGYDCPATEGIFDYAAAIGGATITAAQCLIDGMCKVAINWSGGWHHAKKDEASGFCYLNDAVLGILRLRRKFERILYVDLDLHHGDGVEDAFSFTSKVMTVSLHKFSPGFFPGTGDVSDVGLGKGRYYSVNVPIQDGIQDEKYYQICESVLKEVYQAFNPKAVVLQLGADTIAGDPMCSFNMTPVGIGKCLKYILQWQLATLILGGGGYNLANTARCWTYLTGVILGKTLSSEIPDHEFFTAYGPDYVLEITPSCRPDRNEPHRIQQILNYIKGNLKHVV
Description: The assay was conducted according to the HDAC1/3/6/8 assay kit (Enzo Life Sciences Inc.). Each different concentrations of evaluated compounds were, respectively, incubated with each HDAC1/3/6/8 at coupling of corresponding HDAC substrate (Boc-Lys (Ac)-AMC) at 37°C for 60 min. Then stopping the reaction under adding lysine developer.

- IC50 (HCT116): 2.05 ± 0.19 µM
- IC50 (recombinant human HDAC8): > 1 µM
SMILES: CN(C)c1ccc(-c2nc(C(=O)NCc3ccc(/C=C/C(=O)NO)cc3)cc3c2[nH]c2ccccc23)cc1 [CHC, (E)-N-(4-(3-(hydroxyamino)-3-oxoprop-1-en-1-yl)benzyl)-1-(4-dimethylaminophenyl)-9H-pyrido [3,4-b]indole-3-carboxamide]
